This note sets out measurements from BindingDB's records for doi:10.1002/cbic.201402089 (University of Santiago De Compostela, 2014).

Structures are written as SMILES. pIC50: −log10 of the molar value. “And” between values parts separate entries of the source, which are not always exact repeats. Equal entries are not always repeated.

For the assay, the target named is T1, Kinesin-like protein KIF11 [1-973] (Homo sapiens, UniProt P52732).
T1 construct: 1-973
T1 sequence (P52732 whole entry): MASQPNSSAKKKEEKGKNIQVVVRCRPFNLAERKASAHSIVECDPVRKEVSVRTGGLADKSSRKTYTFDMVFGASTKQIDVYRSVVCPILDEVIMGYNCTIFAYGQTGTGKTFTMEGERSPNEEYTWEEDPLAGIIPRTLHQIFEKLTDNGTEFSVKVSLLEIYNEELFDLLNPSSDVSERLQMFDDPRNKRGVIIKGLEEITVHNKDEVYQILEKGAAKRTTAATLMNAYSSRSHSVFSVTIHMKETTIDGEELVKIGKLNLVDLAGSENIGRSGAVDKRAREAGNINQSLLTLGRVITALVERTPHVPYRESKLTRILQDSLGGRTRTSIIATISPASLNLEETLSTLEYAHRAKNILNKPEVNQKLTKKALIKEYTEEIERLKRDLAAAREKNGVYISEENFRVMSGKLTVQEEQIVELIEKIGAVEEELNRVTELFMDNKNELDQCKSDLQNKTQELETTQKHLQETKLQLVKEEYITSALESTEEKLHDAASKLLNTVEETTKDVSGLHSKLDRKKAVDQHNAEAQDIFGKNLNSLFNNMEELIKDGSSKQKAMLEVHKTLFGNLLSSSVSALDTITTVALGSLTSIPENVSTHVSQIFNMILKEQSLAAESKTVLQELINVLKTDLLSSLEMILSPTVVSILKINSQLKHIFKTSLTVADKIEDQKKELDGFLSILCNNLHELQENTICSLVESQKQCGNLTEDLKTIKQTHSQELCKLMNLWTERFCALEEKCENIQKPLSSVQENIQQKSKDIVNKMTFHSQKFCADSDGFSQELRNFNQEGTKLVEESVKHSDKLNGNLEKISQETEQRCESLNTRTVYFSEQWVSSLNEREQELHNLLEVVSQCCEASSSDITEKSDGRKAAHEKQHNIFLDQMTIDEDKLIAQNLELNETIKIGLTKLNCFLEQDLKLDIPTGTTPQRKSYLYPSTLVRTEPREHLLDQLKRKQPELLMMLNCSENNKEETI
The assay is described as follows: Microtubule-activated ATPase Kinetic Assay.
With `CCOC(=O)CNC(=O)C(C1CC1)n1c(C(=O)c2ccccc2)nc2cc(Br)c(Br)cc21` (stereo not drawn) [(−)-Ethyl 2-[2-(2-benzoyl-5,6-dibromo-1H-benzo[d]imidazol-1-yl)-2 cyclopropylacetamido] acetate (Compound 21)], the negative-log IC50 (pIC50) is 5.83 and 5.60.

Consider `CCCC(C(=O)NCC(=O)OCC)n1c(C(=O)c2ccccc2)nc2cc(Br)c(Br)cc21` (stereo not drawn) [(−)-Ethyl 2-[2-(2-benzoyl-5,6-dibromo-1H-benzo[d]imidazol-1-yl)pentanamido]acetate (Compound 23)], for which the pIC50 was 5.86 and 5.76.

`CCOC(=O)CNC(=O)C(C1CC1)n1c(Cc2ccccc2)nc2cc(Br)c(Br)cc21` (stereo not given) [Ethyl 2-[2-(2-benzyl-5,6-dibromo-1H-benzo[d]imidazol-1-yl)-2-cyclopropylacetamido] acetate (Compound 12)] showed a negative logarithm of the IC50 (pIC50) of 5.64.

As for `CCCC(C(=O)NCC(=O)OCC)n1c(Cc2ccccc2)nc2cc(Cl)c(Cl)cc21` (stereo not given) [Ethyl 2-[2-(2-benzyl-5,6-dichloro-1H-benzo[d]imidazol-1-yl)pentanamido] acetate (Compound 9)], the pIC50 was 5.80. The value for `CCOC(=O)C1C(C)=NC(=S)NC1c1cccc(O)c1` (stereo not given) [ethyl 4-(3-hydroxyphenyl)-6-methyl-2-sulfanylidene-3,4-dihydro-1H-pyrimidine-5-carboxylate] was 5.16.
